Reference: the NIST ThermoML archive (doi:10.1016/j.jct.2018.11.025)
± gives the expanded uncertainty stated by the source.

Conditions: for Normal melting temperature: DTA

c1ccc2c(c1)[nH]c1ccccc12 [9H-carbazole]
Normal melting temperature (Crystal): 243.89 ± 0.7 °C

c1ccc2c(c1)ccc1ccccc12 [phenanthrene]
Normal melting temperature (Crystal 1): 98.56 ± 0.7 °C | Triple point temperature (Crystal 2, DSC): 339.52 ± 0.93 K
